Results reported in patent US20100210590A1, “COMPOSITIONS AND TREATMENTS FOR SEIZURE-RELATED DISORDERS” (NORTHWESTERN UNIVERSITY, priority 1995, published 2010).
Structures can show the parent of a compound that is named as a salt.

Key:
[1] = test system: KA-induced seizures on P15; test: Y-maze test of spontaneous alternation after KA-induced early-life seizures; assay type: in vivo, rat; details: Mzc 5 mg/kg ip at 3 and 9 hr after KA on P15; after 30 days recovery; mean±SEM
Protocol: On either postnatal day (P)15 or 45, rats were administered either KA (Ocean Produce International, Nova Scotia) or equivalent volume of vehicle, phosphate-buffered saline (PBS, pH 7.4) (2). The dose of KA on P 15 (5 mg/kg) and P45 (15 mg/kg) was based on the age-dependent difference in threshold for KA-induced seizures (22). All injections were intraperitoneal (ip).
The Y-maze test of spontaneous alternation was used to evaluate hippocampus-dependent spatial learning (26, 27). Testing began on P27 when animals were first able to decide between the left or right arm of the maze. Testing was performed by a blinded observer on alternate days until P55. Each animal started in the vertical arm of the Y-maze. If the animal selected a different arm on the second run in the maze, it was scored as alternating. The percent alternation over the duration of testing was calculated for each animal.
To determine whether suppression of early cytokine increases would prevent long-term glial activation and improve neurobehavioral outcome after early-life seizures, P15 rats were administered Minozac (Mzc). […] Mzc (5 mg/kg) or diluent (saline) was administered via ip injection at 3 and 9 hr following KA injection on P15 (FIG. 7). Control animals were injected an equal volume of saline (Sal). […]

[2] = cited from earlier work
[3] = test system: Alzheimer's disease mouse model; details: cited from earlier work
[4] = test system: IL-6; test: ELISA of hippocampal homogenates after KA-induced seizures on P15: IL-6; assay type: in vivo, rat; details: Mzc 5 mg/kg ip at 3 and 9 hr after KA on P15; 12 hr recovery; mean±SEM
Protocol: (§1) Hippocampal homogenates were prepared by sonication in protease inhibitor cocktail (1 μg leupeptin (Sigma, St. Louis, Mo.), 0.001 M 4-dithio-L-threitol (DTT, Sigma), 0.002 M sodium orthovanadate (Sigma) and 0.001 M phenylmethanesulfonyl fluorid (PMSF, FLUKA, Switzerland) in 1 ml PBS). Total protein concentration was measured using commercially available reagents (BCA, Pierce, Rockford, Ill.).
(§2) Levels of IL-1β, IL-6, and TNF-α, were measured in hippocampal homogenates by enzyme linked immunosorbent assay using commercially available plates and reagents (ELISA; MesoScale Discovery, MSD, Gaithersburg, Md.). S100B levels were measured as described (26). Samples were analyzed in duplicates and compared with known concentrations of protein. Plates were analyzed using the SECTOR Imager 2400 (MSD).
(§3) To determine whether suppression of early cytokine increases would prevent long-term glial activation and improve neurobehavioral outcome after early-life seizures, P15 rats were administered Minozac (Mzc). […] Mzc (5 mg/kg) or diluent (saline) was administered via ip injection at 3 and 9 hr following KA injection on P15 (FIG. 7). Control animals were injected an equal volume of saline (Sal). At 12 hr, animals were sacrificed, and tissues were processed for analysis of pro-inflammatory cytokines by ELISA as above.

[5] = test system: GFAP; test: Immunohistochemical quantification of GFAP immunoreactive cells in hippocampus (glial activation); assay type: in vivo, rat; details: Mzc 5 mg/kg ip at 3 and 9 hr after KA on P15; 30 days recovery; mean±SEM
Protocol: (§4) Immunohistochemical detection of hippocampal markers of glial activation and astrocyte glutamate transporters was performed in five μm paraffin-embedded sections using Vectastain Elite ABC immunodetection kits and diaminobenzidine substrate (DAB) (Vector Laboratories, Burlingame Calif.). The following primary antibodies were used: GFAP (1:1500, mouse monoclonal, Sigma); S100B (1:1500, rabbit polyclonal, DAKO Cytomation, Carpinteria, Calif.); Ibal (1:400, goat polyclonal, Abcam, Cambridge, Mass.); FH (1:400, goat polyclonal, Quidel); β-clusterin (1:100, goat polyclonal, Santa Cruz); GLAST (1:5000 guinea pig polyclonal, Chemicon International, Temecula, Calif.) and GLT-1 (1:5000, guinea pig polyclonal, Chemicon). Control sections were incubated in normal serum or PBS in place of primary antibody. […]
(§5) Sections were examined under brightfield microscopy by two blinded observers (Nikon Eclipse E800). For GFAP, S100B, Ibal, FH, clusterin, GLAST and GLT-1 sections, the CAI, CA2, CA3, DG and PoDG were photographed at 10× magnification, and images were converted to grayscale for quantification of immunoreactive cells. The percentage of positive cells in the hippocampal regions specified was measured by thresholding for dark objects indicative of immunoreactive cells (Metamorph, Universal Imaging Corporation, Sunnyvale, Calif.). […] Changes in the morphology of immunoreactive cells were not assessed. […]

[6] = test system: IL-1β; test: ELISA of hippocampal homogenates after KA-induced seizures on P15: IL-1β; assay type: in vivo, rat; details: Mzc 5 mg/kg ip at 3 and 9 hr after KA on P15; 12 hr recovery; mean±SEM
Protocol: as §1, §2, §3

[7] = test system: S100B; test: Immunohistochemical quantification of S100B immunoreactive cells in hippocampus (glial activation); assay type: in vivo, rat; details: Mzc 5 mg/kg ip at 3 and 9 hr after KA on P15; 30 days recovery; mean±SEM
Protocol: as §4, §5

[8] = test system: TNF-α; test: ELISA of hippocampal homogenates after KA-induced seizures on P15: TNF-α; assay type: in vivo, rat; details: Mzc 5 mg/kg ip at 3 and 9 hr after KA on P15; 12 hr recovery; mean±SEM
Protocol: as §1, §2, §3

[9] = test system: S100B; test: S100B level in hippocampal homogenates after KA-induced seizures on P15; assay type: in vivo, rat; details: Mzc 5 mg/kg ip at 3 and 9 hr after KA on P15; 12 hr recovery; mean±SEM
Protocol: as §1, §2, §3

[10] = Solubility (logS experimental, aqueous solubility, DMSO); assay type: physicochemical

Compound	percent alternation in Y-maze [1]	CNS penetration [2]	bioavailability [2]	toxicity [2]	water solubility [2]	effect on hippocampal pro-inflammatory cytokine upregulation [3]	effect on hippocampal-dependent behavioral deficits [3]	effect on synaptic dysfunction [3]	IL-6 level in hippocampal brain homogenates [4]	GFAP immunoreactive cells in hippocampus [5]	IL-1β level in hippocampal brain homogenates [6]	S100B immunoreactive cells in hippocampus [7]	TNF-α level in hippocampal brain homogenates [8]	S100B level in hippocampal brain homogenates [9]	solubility in DMSO [10]
Cc1cc(-c2ccccc2)nnc1N1CCN(c2ncccn2)CC1 [Mzc, 2-(4-(4-methyl-6-phenylpyridazin-3-yl)piperazin-1-yl)pyrimidine dihydrochloride monohydrate]	79.5±2.5 % alternation	CNS-penetrant	bioavailable	non-toxic	water-soluble	inhibits hippocampal pro-inflammatory cytokine upregulation	attenuates hippocampal-dependent behavioral deficits	suppresses synaptic dysfunction	103.2±3.8 % control	20.9±1.8 % immuno-positive cells	103.7±4.6 % control	8.1±0.9 % immuno-positive cells	98.5±3.9 % control	89.1±9.7 % control	–
Cc1cc(-c2ccccc2)nnc1N1CCN(c2ncccn2)CC1.Cl.Cl [2-(4-(4-methyl-6-phenylpyridazin-3-yl)piperazin-1-yl)pyrimidine dihydrochloride salt]	–	–	–	–	–	–	–	–	–	–	–	–	–	–	soluble in DMSO
